Test results taken from patent publication US4237305A, “Substituted phenylacetic acid compounds and process for preparation thereof” (Fujisawa Pharmaceutical Co., Ltd., priority 1976, dated 1980).

Experiments:
Escherichia coli 114 = assay: MIC (Minimum Inhibitory Concentration) determined by conventional method, Escherichia coli 114; assay type: cell-based
From the text: (§1) MIC (Minimum Inhibitory Concentration) value
(§2) determined by conventional method

[1] = test system: Pseudomonas aeruginosa 10490; assay: MIC (Minimum Inhibitory Concentration) determined by conventional method, Pseudomonas aeruginosa 10490; assay type: cell-based
From the text: as §1, §2

NC(CCOc1ccc(C(=O)C(=O)NC2CN(C(C(=O)O)c3ccc(O)cc3)C2=O)cc1)C(=O)O (centres unmarked) [d.circle.]
MIC (Minimum Inhibitory Concentration) value (Escherichia coli 114): 1.6
MIC (Minimum Inhibitory Concentration) value [1]: 25
